According to ChEMBL document CHEMBL1773043, “Platensimycin and platencin congeners from Streptomyces platensis” (J Nat Prod, 2011):
Active and inactive are the calls of the source. The calls are words filed in the database; no cut-off is given here.

Legend:
[1] = tested on: Haemophilus influenzae; assay: Antibacterial activity against Haemophilus influenzae at 64 ug/ml after 20 hrs; type: functional, organism-based
[2] = tested on: Enterococcus faecalis; assay: Antibacterial activity against Enterococcus faecalis at 64 ug/ml after 20 hrs; type: functional, organism-based
[3] = tested on: Streptococcus pneumoniae; assay: Antibacterial activity against Streptococcus pneumoniae at 64 ug/ml after 20 hrs; type: functional, organism-based
[4] = tested on: Staphylococcus aureus; assay: Antibacterial activity against Staphylococcus aureus RN450 expressing S1-1941 plasmid carrying antisense FabF2p RNA assessed as 5 mm differential zone clearance measured as minimum concentration after 18 hrs; type: functional
[5] = tested on: Escherichia coli; assay: Antibacterial activity against Escherichia coli at 64 ug/ml after 20 hrs; type: functional, organism-based
[6] = molecular target: T1, 3-oxoacyl-[acyl-carrier-protein] synthase 2 (Staphylococcus aureus) (UniProt Q5TKS0); assay: (§1) Inhibition of Staphylococcus aureus […] assessed as [2-14C]-malonyl CoA incorporation after 90 mins by cell free-based scintillation counting
T1 sequence (whole entry): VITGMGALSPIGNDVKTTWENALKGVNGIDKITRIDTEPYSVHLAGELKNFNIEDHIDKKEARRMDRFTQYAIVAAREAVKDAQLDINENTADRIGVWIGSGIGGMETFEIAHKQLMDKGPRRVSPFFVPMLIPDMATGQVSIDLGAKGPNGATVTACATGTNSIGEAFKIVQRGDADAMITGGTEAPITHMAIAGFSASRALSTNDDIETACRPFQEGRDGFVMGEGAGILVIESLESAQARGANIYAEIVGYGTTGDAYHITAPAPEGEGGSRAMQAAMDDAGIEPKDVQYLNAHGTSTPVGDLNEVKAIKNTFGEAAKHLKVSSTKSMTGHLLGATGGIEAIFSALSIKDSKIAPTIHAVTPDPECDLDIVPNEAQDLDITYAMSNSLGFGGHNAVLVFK

[7] = tested on: Enterococcus faecium; assay: Antibacterial activity against Enterococcus faecium at 64 ug/ml after 20 hrs; type: functional, organism-based
[8] = tested on: Staphylococcus aureus; assay: Antibacterial activity against Staphylococcus aureus at 64 ug/ml after 20 hrs; type: functional, organism-based
[9] = molecular target: T2, 3-oxoacyl-[acyl-carrier-protein] synthase 2 (Staphylococcus aureus, UniProt Q5TKS0); assay: as §1
T2 sequence (Q5TKS0 whole entry): T1 sequence (whole entry)

Structure (SMILES) | Activity [1] | Activity [2] | Activity [3] | Activity [4] | Activity [5] | inhibition [6] | Activity [7] | Activity [8] | IC50 [9]
COC(=O)c1ccc(O)c(NC(=O)CC[C@]2(C)C(=O)C=CC34CC5CC(OC5(CO)C3)C42)c1O (some centres undefined) [PLATENSIMYCIN A4 METHYL ESTER] | inactive | inactive | inactive | 100 µg/mL | inactive | inactive | inactive | inactive | –
COC(=O)c1ccc(O)c(NC(=O)CC[C@]2(C)C(=O)C=CC34C[C@@]5(C)O[C@@H](CC5[C@H]3O)C42)c1O (some centres undefined) | inactive | inactive | inactive | – | inactive | inactive | inactive | inactive | –
C=C1CC23C=CC(=O)[C@@](C)(CCC(=O)Nc4c(O)ccc(C(=O)OC)c4O)C2CC1[C@@H](O)C3 (some centres undefined) | inactive | inactive | inactive | – | inactive | inactive | inactive | inactive | –
C=C1C2CCC3(C=CC(=O)[C@@](C)(CCC(=O)Nc4c(O)ccc(C(=O)OC)c4O)C3C2)[C@H]1O (some centres undefined) | inactive | inactive | inactive | – | inactive | inactive | inactive | inactive | –
C[C@@]12C[C@@]34C=CC(=O)[C@@](C)(CCC(=O)O)C3[C@H](CC1C4)O2 (some centres undefined) | inactive | inactive | inactive | – | inactive | inactive | inactive | inactive | –
C[C@]12O[C@H]3CC1C[C@@]1(C=C(O)C(=O)[C@@](C)(CCC(=O)Nc4c(O)ccc(C(=O)O)c4O)C31)C2O (some centres undefined) | inactive | inactive | inactive | <20 µg/mL | inactive | – | inactive | inactive | 33.8 µM
C=C1CC23C=CC(=O)[C@@](C)(CCC(=O)Nc4c(O)ccc(C(=O)O)c4O)C2CC1[C@@H](O)C3 (some centres undefined) | inactive | inactive | inactive | – | inactive | inactive | inactive | inactive | –
COC(=O)c1ccc(O)c(NC(=O)CC[C@]2(C)C(=O)C=C[C@]34CC5C[C@H](O[C@]5(C)C3)C42)c1O (some centres undefined) | inactive | inactive | inactive | – | inactive | inactive | inactive | inactive | –
C[C@@]12C[C@@]34C=CC(=O)[C@@](C)(CCC(=O)Nc5c(O)ccc(C(N)=O)c5O)C3[C@H](CC1C4)O2 (some centres undefined) | inactive | inactive | inactive | – | inactive | inactive | inactive | inactive | –
C[C@]12O[C@H]3CC1C[C@@]1(C=CC(=O)[C@@](C)(CCC(=O)O)C31)[C@H]2O (some centres undefined) | inactive | inactive | inactive | – | inactive | inactive | inactive | inactive | –
C[C@@]12CC34C=CC(=O)[C@@](C)(CCC(=O)Nc5c(O)ccc(C(=O)O)c5O)C3[C@H](CC1[C@H]4O)O2 (some centres undefined) | inactive | inactive | inactive | – | inactive | inactive | inactive | inactive | –
